Laboratory results taken from patent publication EP4745135A1 (Gluetacs Therapeutics (Shanghai) Co., Ltd., priority 2023, dated 2025).
Like-named read-outs stand apart in the source and are kept apart here.

Key:
[1] = test system: Human multiple myeloma cell (MM.1S); experiment: Tumor cell proliferation inhibition (CellTiter-Meiluncell luminescent cell viability assay); details: Homo sapiens, MM1.S, 96 h, read-out: Inhibitory activity (IC50, nM) on tumor cell proliferation, MM.1S
[2] = test system: Human T lymphocytic leukemia cell line: Jurkat; experiment: as above; details: 96 h, read-out: Inhibitory activity (IC50, nM) on tumor cell proliferation, Jurkat
Protocol: (§1) The tumor cells used herein were cultured in a cell culture medium listed in table 2 at 37°C in an incubator with 5% CO2. Prior to experimentation, all cell lines used were correctly identified by STR profiling, and tested negative for mycoplasma contamination using a mycoplasma detection kit through routine screenings.
(§2) The IC50 values of the compounds of the present disclosure (including the compounds in Table 1 and Examples) were determined using the CellTiter-Meiluncell Luminescent Cell Viability Assay Kit from Dalian Meilun Biotech Co., Ltd. The detailed procedure is as follows: Tumor cells were seeded in 96-well cell culture plates at the densities specified in Table 3. On the following day, the test compounds of the present disclosure were subjected to serial dilution. The dilution can be performed according to one of the following two methods: • (1) The first dilution method: The test compounds of the present disclosure (including the compounds in Table 1 and Examples) were subjected to 5-fold serial dilutions starting from a highest concentration of 2000 µM, resulting in a total of 9 concentrations from high to low (2000, 400, 80, 16, 3.2, 0.64, 0.128, 0.0256, 0.00512 µM). Subsequently, 0.5 µL of the test compound dilution was transferred into the 96-well plate containing the cells, with each well containing 100 µL of cell culture medium. […] Into the 96-well plate, the diluted test compounds and corresponding detection reagents were added, resulting in final test compound concentrations of 500 nM and 10 nM, respectively. The experimental procedure is described below using the diluted 2 µM test compound as an example.
(§3) 0.5 µL of the aforementioned diluted compound of the present disclosure (including the compounds in Table 1 and Examples) was added to the seeded cells in 100 µL of medium, yielding a final test compound concentration of 10 nM. After the cells were treated with the compounds of the present disclosure for a specified period, the cell viability assay reagent was added to the culture medium according to the kit's instructions to determine cell viability. […] All controls were treated using the same procedure as the compounds of the present disclosure. The growth inhibition curves for the compounds of the present disclosure were plotted using Prism GraphPad software, and the IC50 values were calculated therefrom.

GSPT1 = experiment: Western blot, degradation of substrate protein in hPBMCs; format: cell-based, Human; details: Western blot, 24 hours of compound treatment, compounds tested at 50 nM and 500 nM (concentration for the table not stated)
[3] = test system: Human mantle cell lymphoma cell line: JEKO-1; experiment: Tumor cell proliferation inhibition (CellTiter-Meiluncell luminescent cell viability assay); details: JeKo-1, 96 h, read-out: Inhibitory activity (IC50, nM) on tumor cell proliferation, JEKO-1
Protocol: as §1, §2, §3

[4] = test system: Human non-small cell lung cancer cell line: NCI-H1975; experiment: as above; details: NCI-H1975, 96 h, read-out: Inhibitory activity (IC50, nM) on tumor cell proliferation, H1975
Protocol: as §1, §2, §3

[5] = biological target: T1, human Cereblon WT GST-tagged protein (Homo sapiens, UniProt Q96SW2); experiment: CRBN-binding affinity, HTRF (CEREBLON BINDING kit)
T1 construct: purchased CISBIO 64BDCRBNPEH

[6] = test system: Human breast cancer cell (MCF-7); experiment: Tumor cell proliferation inhibition (CellTiter-Meiluncell luminescent cell viability assay); details: MCF7, 96 h, read-out: Inhibitory activity (IC50, nM) on tumor cell proliferation, MCF7
WEE1 = biological target: T2, WEE1 (Homo sapiens, UniProt P30291+Q96SW2); experiment: Western blot, degradation of substrate protein in hPBMCs; format: cell-based; details: Western blot, 24 hours of compound treatment, compounds tested at 50 nM and 500 nM (concentration for the table not stated)
T2 construct: effects of the compounds of the present disclosure on the expression of target proteins in cells; endogenous in cells; host or cells: human PBMCs (Milecell Biotechnologies)

IKZF2 = biological target: T3, IKZF2 (Homo sapiens, UniProt Q96SW2+Q9UKS7); experiment: as above; format: cell-based; details: Western blot, 24 hours of compound treatment, compounds tested at 50 nM and 500 nM (concentration for the table not stated)
T3 construct: effects of the compounds of the present disclosure on the expression of target proteins in cells; endogenous in cells; host or cells: human PBMCs (Milecell Biotechnologies)

IKZF3 = biological target: T4, IKZF3 (Homo sapiens, UniProt Q96SW2+Q9UKT9); experiment: as above; format: cell-based; details: Western blot, 24 hours of compound treatment, compounds tested at 50 nM and 500 nM (concentration for the table not stated)
T4 construct: effects of the compounds of the present disclosure on the expression of target proteins in cells; endogenous in cells; host or cells: human PBMCs (Milecell Biotechnologies)

IKZF1 = biological target: T5, IKZF1 (Homo sapiens, UniProt Q13422+Q96SW2); experiment: as above; format: cell-based; details: Western blot, 24 hours of compound treatment, compounds tested at 50 nM and 500 nM (concentration for the table not stated)
T5 construct: effects of the compounds of the present disclosure on the expression of target proteins in cells; endogenous in cells; host or cells: human PBMCs (Milecell Biotechnologies)

CK1α = biological target: T6, CK1α (Homo sapiens, UniProt P48729+Q96SW2); experiment: as above; format: cell-based; details: Western blot, 24 hours of compound treatment, compounds tested at 50 nM and 500 nM (concentration for the table not stated)
T6 construct: effects of the compounds of the present disclosure on the expression of target proteins in cells; endogenous in cells; host or cells: human PBMCs (Milecell Biotechnologies)

[7] = test system: Human gastric cancer cell line: MGC803; experiment: Tumor cell proliferation inhibition (CellTiter-Meiluncell luminescent cell viability assay); details: MGC-803, read-out: Inhibitory activity (IC50, nM) on tumor cell proliferation, MGC803
Protocol: as §2, §3

[8] = test system: Human multiple myeloma peripheral blood B lymphocyte cell (RPMI-8226); experiment: as above; details: RPMI-8226, 96 h, read-out: Inhibitory activity (IC50, nM) on tumor cell proliferation, RPMI-8226
[9] = test system: Human diffuse large B-cell lymphoma cell line: TMD8; experiment: as above; details: TMD8, 96 h, read-out: Inhibitory activity (IC50, nM) on tumor cell proliferation, TMD8
Protocol: as §1, §2
0.5 µL of the aforementioned diluted compound of the present disclosure (including the compounds in Table 1 and Examples) was added to the seeded cells in 100 µL of medium, yielding a final test compound concentration of 10 nM. […] The growth inhibition curves for the compounds of the present disclosure were plotted using Prism GraphPad software, and the IC50 values were calculated therefrom.

[10] = CRBN binding, HTRF, 3 hours at room temperature; read-out: HTRF IC50

T5 sequence (Q13422 whole entry): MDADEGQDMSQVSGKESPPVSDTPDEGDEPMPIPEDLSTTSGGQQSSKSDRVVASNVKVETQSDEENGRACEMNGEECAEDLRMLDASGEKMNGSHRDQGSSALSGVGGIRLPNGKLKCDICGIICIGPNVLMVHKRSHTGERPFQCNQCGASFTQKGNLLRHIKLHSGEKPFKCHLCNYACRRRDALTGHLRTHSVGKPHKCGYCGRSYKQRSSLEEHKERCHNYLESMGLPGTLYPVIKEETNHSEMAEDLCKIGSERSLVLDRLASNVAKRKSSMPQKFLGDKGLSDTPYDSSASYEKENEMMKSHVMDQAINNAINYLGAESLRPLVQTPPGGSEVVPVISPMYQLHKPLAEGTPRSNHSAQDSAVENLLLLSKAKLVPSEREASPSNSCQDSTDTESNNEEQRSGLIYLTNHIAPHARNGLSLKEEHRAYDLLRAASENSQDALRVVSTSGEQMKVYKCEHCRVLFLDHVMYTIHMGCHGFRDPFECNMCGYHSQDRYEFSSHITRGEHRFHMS
T5 sequence (Q96SW2 whole entry): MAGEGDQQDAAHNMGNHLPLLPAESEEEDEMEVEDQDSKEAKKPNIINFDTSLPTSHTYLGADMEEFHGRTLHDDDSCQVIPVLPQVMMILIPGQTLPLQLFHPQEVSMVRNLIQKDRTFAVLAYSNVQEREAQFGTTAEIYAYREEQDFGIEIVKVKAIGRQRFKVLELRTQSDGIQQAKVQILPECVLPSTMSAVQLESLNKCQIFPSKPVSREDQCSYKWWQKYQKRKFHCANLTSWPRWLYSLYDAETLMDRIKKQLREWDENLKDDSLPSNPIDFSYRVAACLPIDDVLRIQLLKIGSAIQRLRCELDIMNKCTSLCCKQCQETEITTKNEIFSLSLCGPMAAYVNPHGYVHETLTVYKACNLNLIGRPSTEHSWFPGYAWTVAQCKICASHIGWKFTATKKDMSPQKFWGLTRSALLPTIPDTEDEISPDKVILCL
T5 sequence (Q16531 whole entry partner): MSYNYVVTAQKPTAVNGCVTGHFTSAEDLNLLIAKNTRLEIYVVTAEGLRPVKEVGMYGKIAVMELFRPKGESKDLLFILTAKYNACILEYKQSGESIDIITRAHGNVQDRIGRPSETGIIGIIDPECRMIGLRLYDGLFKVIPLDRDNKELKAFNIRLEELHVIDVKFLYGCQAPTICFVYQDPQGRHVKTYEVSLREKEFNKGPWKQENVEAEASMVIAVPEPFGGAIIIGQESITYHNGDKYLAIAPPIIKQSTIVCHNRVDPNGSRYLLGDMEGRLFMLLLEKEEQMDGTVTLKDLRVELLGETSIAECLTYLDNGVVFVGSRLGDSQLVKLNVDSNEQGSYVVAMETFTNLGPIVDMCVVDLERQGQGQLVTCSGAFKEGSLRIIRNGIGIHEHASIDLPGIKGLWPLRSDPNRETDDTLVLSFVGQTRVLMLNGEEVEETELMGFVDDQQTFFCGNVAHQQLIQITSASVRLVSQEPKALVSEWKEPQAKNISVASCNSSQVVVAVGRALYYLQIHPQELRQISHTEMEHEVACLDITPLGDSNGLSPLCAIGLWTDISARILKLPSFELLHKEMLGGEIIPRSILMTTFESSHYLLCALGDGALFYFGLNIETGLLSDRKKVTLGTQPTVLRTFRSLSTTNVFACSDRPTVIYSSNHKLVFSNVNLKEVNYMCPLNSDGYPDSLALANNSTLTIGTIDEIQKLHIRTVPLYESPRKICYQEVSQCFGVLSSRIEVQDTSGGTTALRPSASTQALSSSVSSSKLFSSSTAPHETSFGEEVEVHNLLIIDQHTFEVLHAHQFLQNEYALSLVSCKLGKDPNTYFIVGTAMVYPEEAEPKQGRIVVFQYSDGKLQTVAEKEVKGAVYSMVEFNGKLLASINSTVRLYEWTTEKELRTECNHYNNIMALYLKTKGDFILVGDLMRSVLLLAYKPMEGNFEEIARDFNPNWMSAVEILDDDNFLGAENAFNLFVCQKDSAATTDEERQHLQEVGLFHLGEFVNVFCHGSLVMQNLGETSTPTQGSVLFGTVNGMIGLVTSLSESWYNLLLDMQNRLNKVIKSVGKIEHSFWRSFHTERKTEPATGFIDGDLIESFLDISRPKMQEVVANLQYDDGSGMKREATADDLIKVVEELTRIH
T1 sequence (Q96SW2 whole entry): as the sequence (Q96SW2 whole entry) above
T6 sequence (P48729 whole entry): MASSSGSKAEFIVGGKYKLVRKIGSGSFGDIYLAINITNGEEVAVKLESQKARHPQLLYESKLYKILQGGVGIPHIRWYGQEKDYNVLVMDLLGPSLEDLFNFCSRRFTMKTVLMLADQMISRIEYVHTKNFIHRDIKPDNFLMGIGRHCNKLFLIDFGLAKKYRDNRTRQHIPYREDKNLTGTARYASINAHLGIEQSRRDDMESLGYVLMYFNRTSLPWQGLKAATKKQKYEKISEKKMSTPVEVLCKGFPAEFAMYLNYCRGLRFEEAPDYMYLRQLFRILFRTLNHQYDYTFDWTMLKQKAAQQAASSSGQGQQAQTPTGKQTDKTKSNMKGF
T6 sequence (Q96SW2 whole entry): as the sequence (Q96SW2 whole entry) above
T6 sequence (Q16531 whole entry partner): as the sequence (Q16531 whole entry partner) above
T2 sequence (P30291 whole entry): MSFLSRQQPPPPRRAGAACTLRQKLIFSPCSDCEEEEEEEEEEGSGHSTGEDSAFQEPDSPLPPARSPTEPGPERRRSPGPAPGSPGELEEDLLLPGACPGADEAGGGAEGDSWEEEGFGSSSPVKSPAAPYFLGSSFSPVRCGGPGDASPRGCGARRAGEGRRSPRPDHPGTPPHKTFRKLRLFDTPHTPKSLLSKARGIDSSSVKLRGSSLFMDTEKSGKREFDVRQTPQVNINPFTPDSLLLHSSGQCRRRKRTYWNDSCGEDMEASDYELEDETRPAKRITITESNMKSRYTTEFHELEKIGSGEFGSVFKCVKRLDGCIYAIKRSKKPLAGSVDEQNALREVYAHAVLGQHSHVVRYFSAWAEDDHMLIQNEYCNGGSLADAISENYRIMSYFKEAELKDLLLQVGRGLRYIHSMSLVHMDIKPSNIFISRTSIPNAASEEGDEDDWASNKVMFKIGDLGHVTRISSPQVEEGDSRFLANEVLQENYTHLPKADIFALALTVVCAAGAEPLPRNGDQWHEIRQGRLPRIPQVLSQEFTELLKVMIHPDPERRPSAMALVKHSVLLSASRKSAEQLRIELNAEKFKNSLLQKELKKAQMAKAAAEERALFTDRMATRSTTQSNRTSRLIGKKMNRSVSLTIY
T2 sequence (Q96SW2 whole entry): as the sequence (Q96SW2 whole entry) above
T2 sequence (Q16531 whole entry partner): as the sequence (Q16531 whole entry partner) above
T3 sequence (Q9UKS7 whole entry): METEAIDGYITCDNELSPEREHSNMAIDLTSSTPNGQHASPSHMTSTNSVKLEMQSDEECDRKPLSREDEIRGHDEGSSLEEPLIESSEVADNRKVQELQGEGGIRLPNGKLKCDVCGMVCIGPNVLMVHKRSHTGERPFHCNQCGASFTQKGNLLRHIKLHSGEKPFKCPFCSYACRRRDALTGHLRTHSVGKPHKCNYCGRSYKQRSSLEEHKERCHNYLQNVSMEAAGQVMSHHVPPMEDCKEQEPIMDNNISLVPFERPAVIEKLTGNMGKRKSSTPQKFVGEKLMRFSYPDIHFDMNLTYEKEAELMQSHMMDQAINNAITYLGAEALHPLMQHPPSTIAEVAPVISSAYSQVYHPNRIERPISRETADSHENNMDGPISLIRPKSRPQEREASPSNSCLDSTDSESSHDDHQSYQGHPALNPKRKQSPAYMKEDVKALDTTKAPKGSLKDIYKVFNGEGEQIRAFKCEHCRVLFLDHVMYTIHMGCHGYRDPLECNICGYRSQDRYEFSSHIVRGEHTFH
T3 sequence (Q96SW2 whole entry): as the sequence (Q96SW2 whole entry) above
T3 sequence (Q16531 whole entry partner): as the sequence (Q16531 whole entry partner) above
T4 sequence (Q9UKT9 whole entry): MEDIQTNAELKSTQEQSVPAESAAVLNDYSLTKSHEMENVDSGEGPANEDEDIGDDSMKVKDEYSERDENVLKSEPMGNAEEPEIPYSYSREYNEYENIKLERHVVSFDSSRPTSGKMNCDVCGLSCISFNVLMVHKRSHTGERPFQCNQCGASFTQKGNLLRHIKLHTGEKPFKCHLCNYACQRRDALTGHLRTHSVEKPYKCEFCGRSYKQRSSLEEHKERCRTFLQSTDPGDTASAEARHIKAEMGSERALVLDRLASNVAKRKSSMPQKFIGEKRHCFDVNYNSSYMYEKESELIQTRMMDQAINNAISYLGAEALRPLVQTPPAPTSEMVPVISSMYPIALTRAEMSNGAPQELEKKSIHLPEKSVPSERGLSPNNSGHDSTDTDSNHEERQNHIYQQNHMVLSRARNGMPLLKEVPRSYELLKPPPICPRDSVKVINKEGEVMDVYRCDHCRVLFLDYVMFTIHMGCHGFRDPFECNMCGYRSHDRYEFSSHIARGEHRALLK
T4 sequence (Q96SW2 whole entry): as the sequence (Q96SW2 whole entry) above
T4 sequence (Q16531 whole entry partner): as the sequence (Q16531 whole entry partner) above

SMILES	IC50 [1] [nM]	IC50 [2] [nM]	GSPT1 substrate protein remaining % (GSPT1)	IC50 [3] [nM]	IC50 [4] [nM]	IC50 [5, 10] [nM]	IC50 [6] [nM]	Wee1 substrate protein remaining % (WEE1)	IKZF2 substrate protein remaining % (IKZF2)	IKZF3 substrate protein remaining % (IKZF3)	IKZF 1 substrate protein remaining % (IKZF1)	CK1α substrate protein remaining % (CK1α)	IC50 [7] [nM]	IC50 ([5]; read-out: HTRF IC50; CRBN binding, HTRF, 3 hours at room temperature) [nM]	IC50 [8] [nM]	IC50 [9] [nM]
Cc1ccc(Sc2ccccc2N2CCN(Cc3ccc4c(c3)CN(C3CCC(=O)NC3=O)C4=S)CC2)c(C)c1 (stereo not drawn) [GT-05092, 3-(5-((4-(2-((2,4-dimethylphenyl)thio)phenyl)piperazin-1-yl)methyl)-1-thioxoisoindolin-2-yl)piperidine-2,6-dione]	10 to 50	50 to 100	A (0% ≤ substrate protein remaining % ≤ 80%)	10 to 50	50 to 100	500 to 1000	100 to 500	A (0% ≤ substrate protein remaining % ≤ 80%)	A (0% ≤ substrate protein remaining % ≤ 80%)	A (0% ≤ substrate protein remaining % ≤ 80%)	A (0% ≤ substrate protein remaining % ≤ 80%)	B (80%< substrate protein remaining %≤ 100%)	100 to 500	–	–	–
O=C1CCC(N2Cc3cc(CN4CCN(c5cccc6sccc56)CC4)ccc3C2=S)C(=O)N1 (stereo not drawn) [GT-05088, 3-(5-((4-(benzo[b]thiophen-4-yl)piperazin-1-yl)methyl)-1-thioxoisoindolin-2-yl)piperidine-2,6-dione]	10 to 50	50 to 100	A (0% ≤ substrate protein remaining % ≤ 80%)	10 to 50	50 to 100	100 to 500	100 to 500	A (0% ≤ substrate protein remaining % ≤ 80%)	A (0% ≤ substrate protein remaining % ≤ 80%)	A (0% ≤ substrate protein remaining % ≤ 80%)	A (0% ≤ substrate protein remaining % ≤ 80%)	B (80%< substrate protein remaining %≤ 100%)	100 to 500	–	–	–
O=C1CCC(N2Cc3cc(CN4CCC(c5cccc(Cl)c5Cl)CC4)ccc3C2=S)C(=O)N1 (stereo not drawn) [GT-05150, 3-(5-((4-(2,3-dichlorophenyl)piperidin-1-yl)methyl)-1-thioxoisoindolin-2-yl)piperidine-2,6-dione]	5 to 10	10 to 50	A (0% ≤ substrate protein remaining % ≤ 80%)	50 to 100	50 to 100	500 to 1000	100 to 500	A (0% ≤ substrate protein remaining % ≤ 80%)	A (0% ≤ substrate protein remaining % ≤ 80%)	B (80%< substrate protein remaining %≤ 100%)	A (0% ≤ substrate protein remaining % ≤ 80%)	B (80%< substrate protein remaining %≤ 100%)	100 to 500	–	–	–
O=C1CCC(N2Cc3cc(CN4CC=C(c5cccc(Cl)c5Cl)CC4)ccc3C2=S)C(=O)N1 (stereo not drawn) [GT-05149, 3-(5-((4-(2,3-dichlorophenyl)-3,6-dihydropyridin-1(2H)-yl)methyl)-1-thioxoisoindolin-2-yl)piperidine-2,6-dione]	< 5	5 to 10	A (0% ≤ substrate protein remaining % ≤ 80%)	5 to 10	10 to 50	100 to 500	10 to 50	A (0% ≤ substrate protein remaining % ≤ 80%)	A (0% ≤ substrate protein remaining % ≤ 80%)	A (0% ≤ substrate protein remaining % ≤ 80%)	A (0% ≤ substrate protein remaining % ≤ 80%)	B (80%< substrate protein remaining %≤ 100%)	10 to 50	–	–	–
O=C1CCC(N2Cc3cc(CN4CCC(N(c5ccccc5)c5ccccc5)CC4)ccc3C2=S)C(=O)N1 (stereo not drawn)	< 5	< 5	A (0% ≤ substrate protein remaining % ≤ 80%)	< 5	5 to 10	–	10 to 50	A (0% ≤ substrate protein remaining % ≤ 80%)	A (0% ≤ substrate protein remaining % ≤ 80%)	A (0% ≤ substrate protein remaining % ≤ 80%)	A (0% ≤ substrate protein remaining % ≤ 80%)	B (80%< substrate protein remaining %≤ 100%)	5 to 10	100 to 500	–	–
Cc1cscc1C1=CCN(Cc2ccc3c(c2)CN(C2CCC(=O)NC2=O)C3=S)CC1 (stereo not drawn) [GT-05145, 3-(5-((4-(4-methylthiophen-3-yl)-3,6-dihydropyridin-1(2H)-yl)methyl)-1-thioxoisoindolin-2-yl)piperidine-2,6-dione]	< 5	< 5	A (0% ≤ substrate protein remaining % ≤ 80%)	< 5	5 to 10	< 100	10 to 50	A (0% ≤ substrate protein remaining % ≤ 80%)	A (0% ≤ substrate protein remaining % ≤ 80%)	A (0% ≤ substrate protein remaining % ≤ 80%)	A (0% ≤ substrate protein remaining % ≤ 80%)	A (0% ≤ substrate protein remaining % ≤ 80%)	10 to 50	–	–	–
Cc1ccc(C2=CCN(Cc3ccc4c(c3)CN(C3CCC(=O)NC3=O)C4=S)CC2)s1 (stereo not drawn) [GT-05111, 3-(5-((4-(5-methylthiophen-2-yl)-3,6-dihydropyridin-1(2H)-yl)methyl)-1-thioxoisoindolin-2-yl)piperidine-2,6-dione]	10 to 50	50 to 100	A (0% ≤ substrate protein remaining % ≤ 80%)	50 to 100	50 to 100	100 to 500	100 to 500	A (0% ≤ substrate protein remaining % ≤ 80%)	A (0% ≤ substrate protein remaining % ≤ 80%)	A (0% ≤ substrate protein remaining % ≤ 80%)	A (0% ≤ substrate protein remaining % ≤ 80%)	A (0% ≤ substrate protein remaining % ≤ 80%)	100 to 500	–	–	–
O=C1CCC(N2Cc3cc(CN4CCC(c5c[nH]c6cc(F)ccc56)CC4)ccc3C2=S)C(=O)N1 (stereo not drawn) [GT-05243, 3-(5-((4-(6-fluoro-1H-indol-3-yl)piperidin-1-yl)methyl)-1-thioxoisoindolin-2-yl)piperidine-2,6-dione]	< 5	–	A (0% ≤ substrate protein remaining % ≤ 80%)	–	–	< 100	–	A (0% ≤ substrate protein remaining % ≤ 80%)	A (0% ≤ substrate protein remaining % ≤ 80%)	A (0% ≤ substrate protein remaining % ≤ 80%)	B (80%< substrate protein remaining %≤ 100%)	B (80%< substrate protein remaining %≤ 100%)	–	–	10 to 50	100 to 500
O=C1CCC(N2Cc3cc(CN4CCC(Nc5ccccc5-c5ccc(Cl)cc5)CC4)ccc3C2=S)C(=O)N1 (stereo not drawn) [GT-05109, 3-(5-((4-((4'-chloro-[1,1'-biphenyl]-2-yl)amino)piperidin-1-yl)methyl)-1-thioxoisoindolin-2-yl)piperidine-2,6-dione]	< 5	< 5	A (0% ≤ substrate protein remaining % ≤ 80%)	5 to 10	5 to 10	500 to 1000	10 to 50	A (0% ≤ substrate protein remaining % ≤ 80%)	A (0% ≤ substrate protein remaining % ≤ 80%)	A (0% ≤ substrate protein remaining % ≤ 80%)	A (0% ≤ substrate protein remaining % ≤ 80%)	A (0% ≤ substrate protein remaining % ≤ 80%)	10 to 50	–	–	–
